Laboratory results as given in paper PMC6332093, “Development of Radiolabeled Membrane Type-1 Matrix Metalloproteinase Activatable Cell Penetrating Peptide Imaging Probes” (Molecules, 2015).
Read-outs that look alike come from different tables or passages of the source. Square brackets hold non-standard residues; d marks the D form. Peptide text beside a SMILES is read from it. * marks the point of attachment. DOTA = O=C(O)CN1CCN(CC(=O)O)CCN(CC(=O)*)CCN(CC(=O)O)CC1; AEA = NCCOCC(=O)O

Tests used:
[1] = Biodistribution in mouse model of myocardial infarction; type: in vivo; details: iv, total radioactivity, 5 h post-injection; for tissue uptake at 5 h: 10 nmol i.v., mean ± SD
Description: An in vivo pilot study was performed to assess the in vivo biodistribution of ACPP-B and CPP-B, 5 h post-injection, in a mouse model of myocardial infarction (MI). The conditions were similar to the earlier study with the MMP-2/9 sensitive probe ^177Lu/^125I-ACPP-2/9 [1] to facilitate comparison. We aimed to characterize the in vivo biodistribution of ACPP-B using a dual-isotope approach with ^177Lu, labeled to the polycationic domain, and ^125I, labeled to the polyanionic domain, as orthogonal radiolabels (see Supplemental Information for performed iodination procedures). […] Unfortunately, a >95% radiochemical purity could not be achieved by solid phase extraction (Figure S5), and desalting strategies to remove ^125I could not be applied due to the low molecular weight of the peptide. Therefore, re-design of the ACPP-B peptide structure, to prevent side-reactions during iodination, may enable dual-isotope studies. Hereto, the cysteine residue can be acetylated, but oxidation of the sulfur atom may still occur. Furthermore, this conversion results in a more hydrophobic residue that may impact the MT1-MMP sensitivity of the probe. Substitution of the cysteine by a serine residue will possibly be a more attractive option. Alternatively, iodine may be introduced specifically to the N-terminus via coupling of a ^125I-SHPP moiety (following a similar approach as proposed for iodination of ACPP-C (Figure 1)).
(§1) Here, a single isotope labeled probe ^177Lu-ACPP-B was employed in a pilot in vivo study.
MI was induced by permanent ligation of the left anterior descending coronary artery (LAD) using published procedures. In short, animals were subcutaneously injected with buprenorphine (0.1 mg/kg) and 30 min later anesthetized with isoflurane. Animals were intubated and ventilated with 100% oxygen with a rodent respirator. After left thoracotomy between ribs four and five, the LAD was ligated with a 6–0 prolene suture. The chest and skin were closed with 5–0 silk sutures. The animal’s temperature was continuously measured rectally and maintained at 36.5–37.5 °C during surgery. After surgery, animals were allowed to recover at 30 °C overnight.
(§2) Biodistribution experiments were performed on MI-mice (n = 5 per probe) by i.v.-injection of ^177Lu-ACPP-B (10 nmol/100 µL, ca. 4.0 MBq ^177Lu), or ^177Lu-CPP-B (10 nmol/100 µL, ca. 4.0 MBq ^177Lu). For animals injected with ^177Lu-ACPP-B, blood samples were withdrawn from the vena saphena at selected time points (3, 9, 27, and 81 min), weighed, and diluted to 1 mL with MilliQ water. The mice were anesthetized with isoflurane 5 h after i.v.-injection, subjected to 2% (w/v) Evans Blue i.v.-injection (50 mg/kg) and sacrificed 2 min later by cervical dislocation. Organs and tissues of interest were harvested and weighed. The hearts were cooled to 4 °C, cut in 1 mm slices from apex to base. Infarct, border, and remote areas were isolated based on Evans Blue staining. The ^177Lu radioactivity of all samples was measured in a γ-counter (Wizard 1480; PerkinElmer) along with standards to determine the injected dose per gram (%ID/g). The energy window was set to 155–380 keV. The average probe concentration at time 0 (C0) was calculated by fitting the blood clearance data to the 2-phase exponential decay function Y = span1 × exp(−K1 × X) + span2 × exp(−K2 × X) + Plateau using GraphPad Prism. The area under the curve (AUC) was determined and the blood half-life, the time point at which the AUC reaches 50% of the total AUC, was subsequently derived using MatLab. The average volume of distribution was calculated using the formula VD = dose/(mean body weight × C0) [L/kg].

in vivo = details: mouse; for tissue uptake: 10 nmol, total radioactivity
Description: as §1
Figure 6 Blood kinetics of ^177Lu-ACPP-B in MI-mice (n = 3). The data are mean %ID/g ± SD and fitted to the 2-phase exponential decay function Y = span1 × exp(−K1 × X) + span2 × exp(−K2 × X) + Plateau. Span1 = 2.61%ID/g, K1 = 1.99 min^−1, Span2 = 7.35%ID/g, K2 = 27.1 min^−1.
as §2

[2] = blood, MI-mice 10 days after MI, γ-counting, n = 5, read-out: Biodistribution, Blood
[3] = brain, MI-mice, n = 5, read-out: Biodistribution, Brain
[4] = fat, MI-mice, n = 5, read-out: Biodistribution, Fat
[5] = heart, infarct area, MI-mice, n = 5, read-out: Biodistribution, Heart, infarct
[6] = heart, remote myocardium, MI-mice, n = 5, read-out: Biodistribution, Heart, remote
[7] = kidney, MI-mice, n = 5, read-out: Biodistribution, Kidney
[8] = liver, MI-mice, n = 5, read-out: Biodistribution, Liver
[9] = lung, MI-mice, n = 5, read-out: Biodistribution, Lung
[10] = muscle, MI-mice, n = 5, read-out: Biodistribution, Muscle
[11] = spleen, MI-mice, n = 5, read-out: Biodistribution, Spleen
[12] = thigh bone, MI-mice, n = 5, read-out: Biodistribution, Thigh bone

Row | Structure (SMILES) | tissue to tissue ratio at 5 h ([1]; kidney and liver, ^177Lu label, 10 nmol, MI-mice, from Table 1) | blood half-life (in vivo; iv) | tissue uptake at 5 h [1, 2] | tissue uptake at 5 h [1, 3] | tissue uptake at 5 h [1, 4] | tissue uptake at 5 h [1, 5] | tissue uptake at 5 h [1, 6] | tissue uptake at 5 h [1, 7] | tissue uptake at 5 h [1, 8] | tissue uptake at 5 h [1, 9] | tissue uptake at 5 h [1, 10] | tissue uptake at 5 h [1, 11] | tissue uptake at 5 h [1, 12] | K1 of 2-phase exponential decay fit of blood kinetics (in vivo) | K2 of 2-phase exponential decay fit of blood kinetics (in vivo) | tissue uptake (in vivo; iv, Span1 of 2-phase exponential decay fit of blood kinetics) | tissue uptake (in vivo; iv, Span2 of 2-phase exponential decay fit of blood kinetics)
1 | CC(=O)N[C@H](Cc1ccc(O)cc1)C(=O)N[C@H](CCC(=O)O)C(=O)N[C@H](CCC(=O)O)C(=O)N[C@H](CCC(=O)O)C(=O)N[C@H](CCC(=O)O)C(=O)N[C@H](CCC(=O)O)C(=O)N[C@H](CCC(=O)O)C(=O)N[C@H](CCC(=O)O)C(=O)N[C@H](CCC(=O)O)C(=O)N[C@H](CCC(=O)O)C(=O)NCCOCC(=O)N[C@@H](CS)C(=O)N[C@@H](CCCNC(=N)N)C(=O)N1CCC[C@H]1C(=O)N[C@@H](C)C(=O)N[C@@H](Cc1c[nH]cn1)C(=O)N[C@@H](CC(C)C)C(=O)N[C@@H](CCCNC(=N)N)C(=O)N[C@@H](CC(=O)O)C(=O)N[C@@H](CO)C(=O)NCC(=O)NCCOCC(=O)N[C@H](CCCNC(=N)N)C(=O)N[C@H](CCCNC(=N)N)C(=O)N[C@H](CCCNC(=N)N)C(=O)N[C@H](CCCNC(=N)N)C(=O)N[C@H](CCCNC(=N)N)C(=O)N[C@H](CCCNC(=N)N)C(=O)N[C@H](CCCNC(=N)N)C(=O)N[C@H](CCCNC(=N)N)C(=O)N[C@H](CCCNC(=N)N)C(=O)N[C@H](CCCCNC(=O)CN1CCN(CC(=O)O)CCN(CC(=O)O)CCN(CC(=O)O)CC1)C(N)=O [ACPP-B, Ac-y-e9-X-CRPAHLRDSG-X-r9-k(DOTA)-NH2] (Ac-[dY][dE][dE][dE][dE][dE][dE][dE][dE][dE][AEA]CRPAHLRDSG[AEA][dR][dR][dR][dR][dR][dR][dR][dR][dR][dK](DOTA)-NH2) | 14.9 | ~ 24 min |  |  |  |  |  |  |  |  |  |  |  |  |  |  | 
2 | CC(=O)N[C@H](Cc1ccc(O)cc1)C(=O)N[C@H](CCC(=O)O)C(=O)N[C@H](CCC(=O)O)C(=O)N[C@H](CCC(=O)O)C(=O)N[C@H](CCC(=O)O)C(=O)N[C@H](CCC(=O)O)C(=O)N[C@H](CCC(=O)O)C(=O)N[C@H](CCC(=O)O)C(=O)N[C@H](CCC(=O)O)C(=O)N[C@H](CCC(=O)O)C(=O)NCCOCC(=O)N[C@@H](CS)C(=O)N[C@@H](CCCNC(=N)N)C(=O)N1CCC[C@H]1C(=O)N[C@@H](C)C(=O)N[C@@H](Cc1c[nH]cn1)C(=O)N[C@@H](CC(C)C)C(=O)N[C@@H](CCCNC(=N)N)C(=O)N[C@@H](CC(=O)O)C(=O)N[C@@H](CO)C(=O)NCC(=O)NCCOCC(=O)N[C@H](CCCNC(=N)N)C(=O)N[C@H](CCCNC(=N)N)C(=O)N[C@H](CCCNC(=N)N)C(=O)N[C@H](CCCNC(=N)N)C(=O)N[C@H](CCCNC(=N)N)C(=O)N[C@H](CCCNC(=N)N)C(=O)N[C@H](CCCNC(=N)N)C(=O)N[C@H](CCCNC(=N)N)C(=O)N[C@H](CCCNC(=N)N)C(=O)N[C@H](CCCCNC(=O)CN1CCN(CC(=O)O)CCN(CC(=O)O)CCN(CC(=O)O)CC1)C(N)=O [^177Lu-ACPP-B, metal not drawn] (Ac-[dY][dE][dE][dE][dE][dE][dE][dE][dE][dE][AEA]CRPAHLRDSG[AEA][dR][dR][dR][dR][dR][dR][dR][dR][dR][dK](DOTA)-NH2) |  |  | 0.08 ± 0.03 %ID/g | 0.01 ± 0.01 %ID/g | 0.43 ± 0.28 %ID/g | 0.75 ± 0.15 %ID/g | 0.11 ± 0.02 %ID/g | 100 ± 13 %ID/g | 6.76 ± 0.91 %ID/g | 0.38 ± 0.09 %ID/g | 0.09 ± 0.07 %ID/g | 0.77 ± 0.13 %ID/g | 1.92 ± 0.73 %ID/g | 1.99 min⁻¹ | 27.1 min⁻¹ | 2.61 %ID/g | 7.35 %ID/g
3 | CC(C)C[C@H](N)C(=O)N[C@@H](CCCNC(=N)N)C(=O)N[C@@H](CC(=O)O)C(=O)N[C@@H](CO)C(=O)NCC(=O)NCCOCC(=O)N[C@H](CCCNC(=N)N)C(=O)N[C@H](CCCNC(=N)N)C(=O)N[C@H](CCCNC(=N)N)C(=O)N[C@H](CCCNC(=N)N)C(=O)N[C@H](CCCNC(=N)N)C(=O)N[C@H](CCCNC(=N)N)C(=O)N[C@H](CCCNC(=N)N)C(=O)N[C@H](CCCNC(=N)N)C(=O)N[C@H](CCCNC(=N)N)C(=O)N[C@H](CCCCNC(=O)CN1CCN(CC(=O)O)CCN(CC(=O)O)CCN(CC(=O)O)CC1)C(N)=O [^177Lu-CPP-B, metal not drawn] (H-LRDSG[AEA][dR][dR][dR][dR][dR][dR][dR][dR][dR][dK](DOTA)-NH2) |  |  | 0.14 ± 0.06 %ID/g | 0.01 ± 0.01 %ID/g | 0.16 ± 0.07 %ID/g | 1.69 ± 0.5 %ID/g | 0.32 ± 0.11 %ID/g | 10.1 ± 1.61 %ID/g | 33.2 ± 3.98 %ID/g | 0.67 ± 0.25 %ID/g | 0.1 ± 0.02 %ID/g | 4.17 ± 0.82 %ID/g | 2.61 ± 0.25 %ID/g |  |  |  | 
